As usually defined, the IC50 is the concentration at which inhibition is half-maximal.

Molecules are shown by their SMILES.

Data set [1] concerns the target T1, human bile salt export pump (BSEP) (Homo sapiens, UniProt O95342).
T1 construct: expressed in transfected cells; host or cells: Sf9 cell membrane vesicles
Nature of the data set: Inhibition of hepatic transporter BSEP, Sf9 cell membrane vesicles. Format: biochemical. As to the method:
(§1) Inhibition constants (IC50) were measured for human bile salt export pump (BSEP), sodium taurocholate cotransporting polypeptide (NTCP), multidrug resistance protein 2 (MRP2), P-glycoprotein (Pgp), breast cancer resistance protein (BCRP), organic anion-transporting polypeptide 1B1 (OATP1B1), and OATP1B3 in transfected cell-lines. Known inhibitors were used as positive controls.

Data set [2] addresses T2, sodium taurocholate cotransporting polypeptide (NTCP) (Homo sapiens, UniProt Q14973).
T2 construct: expressed in transfected cells; host or cells: Chinese Hamster Ovary (CHO)
T2 sequence (Q14973 1-349): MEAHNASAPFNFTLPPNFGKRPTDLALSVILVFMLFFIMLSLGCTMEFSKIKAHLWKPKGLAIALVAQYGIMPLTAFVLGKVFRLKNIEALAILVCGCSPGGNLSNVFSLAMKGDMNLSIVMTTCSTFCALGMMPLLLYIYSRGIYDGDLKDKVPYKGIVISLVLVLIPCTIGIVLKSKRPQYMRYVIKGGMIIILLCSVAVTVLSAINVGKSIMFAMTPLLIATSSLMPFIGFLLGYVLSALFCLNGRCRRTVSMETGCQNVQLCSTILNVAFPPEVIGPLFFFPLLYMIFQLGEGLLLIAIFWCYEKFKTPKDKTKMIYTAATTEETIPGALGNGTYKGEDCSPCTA
The data set can be described thus: Inhibition of hepatic transporter NTCP, transfected CHO cells. Format: cell-based. As to the method:
as §1

The next data set has as its target T3, P-glycoprotein (Pgp) (Homo sapiens, UniProt P08183).
T3 construct: expressed in transfected cells; host or cells: Madin-Darby canine kidney strain II (MDCKII)
Nature of the data set: Inhibition of Pgp, transfected MDCKII cells. Format: cell-based. The procedure: as §1

Data set [3] has as its target T4, breast cancer resistance protein (BCRP) (Homo sapiens, UniProt Q9UNQ0).
T4 construct: expressed in transfected cells; host or cells: MDCKII
T4 sequence (Q9UNQ0 1-655): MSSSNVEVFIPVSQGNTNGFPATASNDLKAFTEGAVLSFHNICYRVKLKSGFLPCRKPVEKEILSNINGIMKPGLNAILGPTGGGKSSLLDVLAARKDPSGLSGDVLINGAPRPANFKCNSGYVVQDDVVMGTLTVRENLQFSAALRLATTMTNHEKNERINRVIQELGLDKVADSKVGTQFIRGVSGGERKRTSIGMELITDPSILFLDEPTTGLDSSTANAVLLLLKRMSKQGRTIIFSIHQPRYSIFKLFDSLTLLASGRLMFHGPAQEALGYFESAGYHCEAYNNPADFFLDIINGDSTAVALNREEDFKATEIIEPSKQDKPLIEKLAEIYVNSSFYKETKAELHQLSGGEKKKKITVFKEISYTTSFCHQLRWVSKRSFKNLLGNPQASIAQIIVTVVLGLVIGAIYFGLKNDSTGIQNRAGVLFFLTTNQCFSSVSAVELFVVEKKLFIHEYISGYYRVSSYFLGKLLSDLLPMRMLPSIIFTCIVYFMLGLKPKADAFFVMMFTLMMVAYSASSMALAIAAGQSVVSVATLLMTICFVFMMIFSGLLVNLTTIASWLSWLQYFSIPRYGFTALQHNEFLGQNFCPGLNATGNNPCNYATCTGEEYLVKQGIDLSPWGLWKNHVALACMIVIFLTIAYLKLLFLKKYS
Nature of the data set: Inhibition of BCRP, transfected MDCKII cells. Format: cell-based. The procedure:
as §1

In data set [4] the target is T5, organic anion-transporting polypeptide 1B1 (OATP1B1) (Homo sapiens, UniProt Q9Y6L6).
T5 construct: expressed in transfected cells; host or cells: CHO
T5 sequence (Q9Y6L6 1-691): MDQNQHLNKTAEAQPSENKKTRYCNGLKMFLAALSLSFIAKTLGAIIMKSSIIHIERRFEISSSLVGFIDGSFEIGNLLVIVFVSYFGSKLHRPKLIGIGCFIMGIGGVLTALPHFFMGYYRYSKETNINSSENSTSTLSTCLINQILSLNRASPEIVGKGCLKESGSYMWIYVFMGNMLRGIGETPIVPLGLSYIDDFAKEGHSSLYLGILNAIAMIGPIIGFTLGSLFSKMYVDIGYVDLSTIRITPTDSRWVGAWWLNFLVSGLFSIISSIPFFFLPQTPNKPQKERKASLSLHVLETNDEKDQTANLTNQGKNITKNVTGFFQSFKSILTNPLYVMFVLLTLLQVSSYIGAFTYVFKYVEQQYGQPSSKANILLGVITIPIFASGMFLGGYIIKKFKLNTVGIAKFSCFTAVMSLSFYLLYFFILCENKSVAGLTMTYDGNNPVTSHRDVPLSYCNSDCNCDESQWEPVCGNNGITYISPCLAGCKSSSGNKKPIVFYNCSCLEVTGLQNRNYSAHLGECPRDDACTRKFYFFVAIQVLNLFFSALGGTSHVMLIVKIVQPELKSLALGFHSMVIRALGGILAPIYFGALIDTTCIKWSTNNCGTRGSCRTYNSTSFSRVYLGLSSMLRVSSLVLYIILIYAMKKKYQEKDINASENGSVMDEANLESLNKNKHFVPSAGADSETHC
Nature of the data set: Inhibition of OATP1B1, transfected CHO cells. Format: cell-based. As to the method:
as §1

For the next data set, the target named is T6, OATP1B3 (Homo sapiens, UniProt Q9NPD5).
T6 construct: expressed in transfected cells; host or cells: CHO
T6 sequence (Q9NPD5 1-702): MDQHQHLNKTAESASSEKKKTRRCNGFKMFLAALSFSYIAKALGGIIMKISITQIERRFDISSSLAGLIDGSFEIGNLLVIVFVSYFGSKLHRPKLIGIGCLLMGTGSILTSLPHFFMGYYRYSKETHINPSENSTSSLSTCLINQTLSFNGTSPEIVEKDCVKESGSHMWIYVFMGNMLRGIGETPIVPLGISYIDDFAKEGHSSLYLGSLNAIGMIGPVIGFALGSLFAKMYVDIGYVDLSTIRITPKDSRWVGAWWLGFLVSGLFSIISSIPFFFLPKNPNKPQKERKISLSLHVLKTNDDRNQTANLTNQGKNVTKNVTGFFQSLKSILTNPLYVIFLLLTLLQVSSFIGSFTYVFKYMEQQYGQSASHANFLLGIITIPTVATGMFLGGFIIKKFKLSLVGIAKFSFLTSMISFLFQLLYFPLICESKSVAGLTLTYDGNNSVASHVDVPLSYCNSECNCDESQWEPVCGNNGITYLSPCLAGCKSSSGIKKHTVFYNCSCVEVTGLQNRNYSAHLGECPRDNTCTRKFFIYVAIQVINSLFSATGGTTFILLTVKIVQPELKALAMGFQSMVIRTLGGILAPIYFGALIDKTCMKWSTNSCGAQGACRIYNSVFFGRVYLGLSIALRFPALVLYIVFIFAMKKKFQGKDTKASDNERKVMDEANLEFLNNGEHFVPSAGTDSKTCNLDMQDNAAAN
Nature of the data set: Inhibition of OATP1B3, transfected CHO cells. Format: cell-based. To be noted: OAT1B3. The procedure: as §1

A further data set has as its system human hepatocytes. Conditions: cited from earlier work.

T1 sequence (O95342 whole entry): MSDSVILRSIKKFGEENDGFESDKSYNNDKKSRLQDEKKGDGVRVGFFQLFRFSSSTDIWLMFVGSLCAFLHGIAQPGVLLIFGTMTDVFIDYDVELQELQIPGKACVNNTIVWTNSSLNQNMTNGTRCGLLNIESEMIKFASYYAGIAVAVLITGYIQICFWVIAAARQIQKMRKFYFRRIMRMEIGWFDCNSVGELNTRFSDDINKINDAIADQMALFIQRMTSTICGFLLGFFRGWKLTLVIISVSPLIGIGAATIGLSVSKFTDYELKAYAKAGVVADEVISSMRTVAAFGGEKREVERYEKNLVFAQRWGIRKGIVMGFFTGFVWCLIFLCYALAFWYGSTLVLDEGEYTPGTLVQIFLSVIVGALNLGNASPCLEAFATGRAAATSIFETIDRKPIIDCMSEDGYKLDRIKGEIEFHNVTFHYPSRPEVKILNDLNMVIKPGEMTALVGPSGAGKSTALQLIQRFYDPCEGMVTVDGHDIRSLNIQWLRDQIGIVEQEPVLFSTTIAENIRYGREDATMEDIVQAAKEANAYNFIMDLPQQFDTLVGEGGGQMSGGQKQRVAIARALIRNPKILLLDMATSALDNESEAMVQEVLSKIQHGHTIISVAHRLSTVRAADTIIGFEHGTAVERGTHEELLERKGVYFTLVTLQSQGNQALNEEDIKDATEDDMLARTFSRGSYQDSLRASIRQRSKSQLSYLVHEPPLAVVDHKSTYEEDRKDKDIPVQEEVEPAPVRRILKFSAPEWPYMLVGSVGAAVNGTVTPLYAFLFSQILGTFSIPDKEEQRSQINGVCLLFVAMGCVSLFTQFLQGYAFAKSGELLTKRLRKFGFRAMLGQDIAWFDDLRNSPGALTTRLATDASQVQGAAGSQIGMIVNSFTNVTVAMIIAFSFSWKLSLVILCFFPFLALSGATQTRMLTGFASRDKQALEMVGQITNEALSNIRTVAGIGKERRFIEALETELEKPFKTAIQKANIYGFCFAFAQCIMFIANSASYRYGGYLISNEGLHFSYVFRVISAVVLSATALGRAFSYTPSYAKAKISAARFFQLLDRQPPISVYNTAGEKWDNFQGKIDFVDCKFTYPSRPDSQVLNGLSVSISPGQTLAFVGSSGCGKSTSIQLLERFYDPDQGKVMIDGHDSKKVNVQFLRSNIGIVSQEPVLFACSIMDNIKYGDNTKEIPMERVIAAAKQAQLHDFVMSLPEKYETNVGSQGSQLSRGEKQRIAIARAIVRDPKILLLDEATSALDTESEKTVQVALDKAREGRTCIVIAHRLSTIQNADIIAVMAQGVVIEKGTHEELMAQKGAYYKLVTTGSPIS
T3 sequence (P08183 whole entry): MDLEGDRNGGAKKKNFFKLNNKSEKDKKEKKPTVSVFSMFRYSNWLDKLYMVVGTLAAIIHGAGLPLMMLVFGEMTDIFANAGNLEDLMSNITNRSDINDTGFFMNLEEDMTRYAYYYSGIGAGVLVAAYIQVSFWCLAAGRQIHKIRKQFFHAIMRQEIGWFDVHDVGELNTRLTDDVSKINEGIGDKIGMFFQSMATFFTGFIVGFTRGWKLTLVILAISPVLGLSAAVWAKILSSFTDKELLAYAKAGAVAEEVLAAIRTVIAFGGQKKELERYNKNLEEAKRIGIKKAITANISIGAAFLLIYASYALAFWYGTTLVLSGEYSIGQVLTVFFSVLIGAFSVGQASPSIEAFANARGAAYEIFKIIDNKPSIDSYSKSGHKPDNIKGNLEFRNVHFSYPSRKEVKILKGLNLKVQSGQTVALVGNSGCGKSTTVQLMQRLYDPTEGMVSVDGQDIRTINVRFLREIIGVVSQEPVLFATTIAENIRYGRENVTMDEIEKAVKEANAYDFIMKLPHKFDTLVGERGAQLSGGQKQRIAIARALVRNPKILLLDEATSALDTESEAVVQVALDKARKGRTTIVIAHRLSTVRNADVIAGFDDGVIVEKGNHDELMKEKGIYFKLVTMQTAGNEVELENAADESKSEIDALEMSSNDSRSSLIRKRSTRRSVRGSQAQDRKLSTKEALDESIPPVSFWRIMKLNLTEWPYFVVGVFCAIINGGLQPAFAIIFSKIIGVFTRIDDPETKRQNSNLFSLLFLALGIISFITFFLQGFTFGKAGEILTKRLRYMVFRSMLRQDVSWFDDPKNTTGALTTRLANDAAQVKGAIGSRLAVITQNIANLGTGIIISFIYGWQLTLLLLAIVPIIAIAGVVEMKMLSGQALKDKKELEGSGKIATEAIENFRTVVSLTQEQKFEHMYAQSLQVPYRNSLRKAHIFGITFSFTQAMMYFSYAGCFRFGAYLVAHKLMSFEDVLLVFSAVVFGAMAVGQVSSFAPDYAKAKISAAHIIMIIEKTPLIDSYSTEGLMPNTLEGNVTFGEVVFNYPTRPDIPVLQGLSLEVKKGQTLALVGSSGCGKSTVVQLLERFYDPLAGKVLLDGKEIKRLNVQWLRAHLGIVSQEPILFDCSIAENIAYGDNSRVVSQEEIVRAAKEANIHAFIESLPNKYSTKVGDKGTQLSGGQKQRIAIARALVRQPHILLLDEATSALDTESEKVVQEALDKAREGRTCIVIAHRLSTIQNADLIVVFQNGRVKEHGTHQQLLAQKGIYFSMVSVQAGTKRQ

Consider `CCCNS(=O)(=O)Nc1ncnc(OCCOc2ncc(Br)cn2)c1-c1ccc(Br)cc1` [Macitentan, N-[5-(4-bromophenyl)-6-(2-(5-bromopyrimidin-2-yloxy)ethoxy)-pyrimidin-4-yl]-N′-propylaminosulfonamide], for which the “effect on BSEP” value in data set [1] was “inhibition was observed”. Further, the IC50 in data set [1] (BSEP) amounted to 12 µM; in data set [2] (NTCP) it was 8 µM; at P-glycoprotein (Pgp), 64 ± 15 µM; in data set [3], 75 ± 37 µM; in data set [4] it was 2000 ± 300 nM; against OATP1B3, 2100 ± 300 nM. In addition, the “effect on NTCP” value in data set [2] is on record as “inhibition was observed”.
As to `COc1cc(OC)nc(O[C@H](C(=O)O)C(OC)(c2ccccc2)c2ccccc2)n1` [darusentan], in the data set with human hepatocytes, the “effect on hepatobiliary transporter activity” value is listed as “less potent”.
With `Cc1cc2c(cc1CC(=O)c1sccc1S(=O)(=O)Nc1onc(C)c1Cl)OCO2` [sitaxsentan], the “effect on hepatobiliary transporter activity” value in the data set on human hepatocytes is “decreased transporter activity to the greatest extent”.

(Values after patent publication US20140275094A1, “METHOD FOR TREATING PULMONARY ARTERIAL HYPERTENSION IN A PATIENT NOT HAVING IDIOPATHIC PULMONARY FIBROSIS” (GILEAD SCIENCES, INC., priority 2012, published 2014).)
